# Experimental data as given in US7903239B2, “Porous photonic crystal with light scattering domains and methods of synthesis and use thereof” (priority 2004, dated 2011).
# Assays:
# [1] = system: primary rat hepatocytes; test: Light scattering from hepatocytes seeded on a porous Si photonic crystal (CCD spectrometer, in incubator); type: cell-based; settings: 50 μM Cd^2+
# Description: Hepatocytes were isolated from 2-3 month old adult female Lewis rats by collagenase perfusion as previously described. Hepatocytes were then seeded on the polystyrene-coated porous silicon samples or on tissue-culture polystyrene dishes.
# Hepatocytes were then seeded on the activated polystyrene-coated chip.
# Cell seeding. Porous Si photonic crystal samples were sterilized in a 35 mm dish with 2 mL of 100% ethanol for 1 hour. Ethanol was removed and the samples were allowed to dry in a sterile laminar-flow hood. The samples and dish were washed twice with sterile water. To improve adhesion, 2 mL of a 0.1 mg/mL solution of rat-tail collagen (collagen I) was added to the dish, and the samples were incubated at 37° C. for one h. The collagen-coated samples were then washed once with sterile water, and once with growth media. Media for all experiments was DMEM with high glucose (Invitrogen), 10% fetal bovine serum, supplemented with 0.5 U/mL insulin, 7 ng/mL glucagon, 7.5 mg/mL hydrocortisone, 10 U/mL penicillin, and 10 mg/mL streptomycin. Hepatocytes were isolated from 2-3 month old adult female Lewis rats by collagenase perfusion as previously described. Less than one hour after isolation, 1.25×10^6 cells per dish were seeded in 2 mL of media for scattering experiments and 6×10^5 cells per dish for microscope experiments. As the porous Si samples were smaller than the dish, some cells settled and attached to the polystyrene surface. Unattached cells were removed after one hour and dishes were incubated at 37° C., 5% CO2 for 24 hours to allow spreading before the start of observation.
# Reflectance spectra were collected using an Ocean Optics S-2000 CCD spectrometer fitted with a microscope objective lens coupled to either a bifurcated fiber optic cable (for specular measurements) or a single fiber optic cable (for scattering measurements). […]
# [2] = system: rat hepatocyte cells; test: MTT cell viability assay; type: cell-based; settings: 50 μM Cd^2+, after ~10 h
# [3] = system: hepatocytes; test: Reflectance microscopy of non-incubated hepatocytes on porous Si photonic crystal; type: cell-based, rat; settings: 200 μM Cd^2+, eighty-five min after introduction, cells not incubated
# Description: More particularly, measurement of light scattered from a monolayer of hepatocyte cells on a porous Si photonic crystal is used to measure changes in cellular morphology. Data were collected after hepatocytes were administered a toxic dose of aqueous cadmium chloride (200 μM). […] Upon exposure to Cd^2+, characteristic changes in morphology that accompany loss of viability, such as blebbing and increased granularity, are observed (FIG. 9b). The optical setup produces more dramatic images upon exposure to a toxic dose of Cd^2+. In this arrangement, cells appear with a color characteristic of the underlying photonic crystal, while the regions that are not covered with cells appear darker (FIG. 5a). After loss of viability, the cytoplasm appears brighter, leading to greater nuclear and cell boundary contrast (FIG. 5b).
# Optical measurements. […] Images were processed on Metamorph and JImage. […] Pictures were obtained at time 0 and 85 minutes.
# [4] = system: primary rat hepatocytes; test: Phase-contrast microscopy of hepatocytes on tissue-culture polystyrene plates; settings: 50 μM Cd^2+
# Description: Optical measurements. Images for cells seeded on porous silicon photonic crystals were collected using a reflectance microscope and a 10× LWD objective with on-normal and off-normal illumination using a white light source. Phase contrast images for cells seeded on tissue cultured polystyrene multi-well plates were obtained on a Nikon TE200 microscope with a 10× objective and captured with a camera. Images were processed on Metamorph and JImage. […] Cells were seeded on the porous Si chips at less than 100% coverage so that the porous silicon background could provide contrast. In order to follow the same subset of cells throughout the course of morphology changes for the Cd^2+ toxicity studies, the cells were not incubated while monitoring with the microscope. Rather, cells were placed on a chip and Cd^2+ concentration was adjusted to a final concentration of 200 μM. Pictures were obtained at time 0 and 85 minutes.
# [5] = system: hepatocytes; settings: Cd^2+ in the 50-400 μM range; cited from earlier work
smiles,measurement,setting,value
"[Cl][Cd][Cl] [Cd^2+, cadmium chloride]",time after which intensity of scattered light reaches a constant value,[1],~10 h
same,time after which relative scattered intensity shows a significant increase,[1],~2 h
same,time by which scattering changes precede first loss of viability in MTT stain,[1],~2 h
same,"viability according to MTT stain, % of the initial value",[2],~50%
same,hepatocytes that have lost viability,[3],> 90%
same,hepatocyte morphology by phase contrast,[4],"granular appearance increases substantially, even after 2 h"
same,time by which most cellular features become indistinguishable,[4],≤ 14 h
same,time of cell damage (decrease in membrane and metabolic integrity),[5],within the first hour of exposure
